In patent US11873295B2, “Allosteric chromenone inhibitors of phosphoinositide 3-kinase (PI3K) for the treatment of disease” (Petra Pharma Corporation, priority 2021, dated 2024) one finds IC50 data, which are given here for 18 compounds.

Molecules are shown by their SMILES. Some results are limits rather than exact numbers.

The test system of assay [1] is PI3K-α (PIK3CA) in MDA-MB-453 cells. As to the kind of experiment: PI3K-alpha kinase (PIK3CA) activity in vitro cell based assay, MDA-MB-453 cells, AlphaLisa SureFire. Particulars: 0% FBS, 3 hours treatment, relative IC50. Here is the method: PI3K-Alpha Kinase (PIK3CA) Activity In Vitro Cell Based Assay and Determining IC50 Values for Inhibitors
The MDA-MB-453 (ATCC-HTB-131) cell line was obtained from the American Type Culture Collection (Manassas, VA). Cells were maintained in Dulbecco's Modified Eagle Media (DMEM, Gibco 11965-092) supplemented with 10% Fetal Bovine Serum, heat inactivated (FBS HI, Gibco 10082-147), 1× non-essential amino acids (NEAA, Gibco 11140-050), and 1 mM sodium pyruvate (Gibco 11360-070). Cultures were maintained in a humidified incubator at 37° C. under 5% CO2/95% air.
For compound testing in 0% FBS, MDA-MB-453 cells were seeded at a density of 1.5×10^4 cells per well in white 384-well plates in 20 μl of Minimum Essential Media (MEM) assay media with 1×NEAA, 1 mM sodium pyruvate, and 1 μg/mL human insulin (Sigma I9278). Compounds dissolved in 10 mM stock solutions in DMSO were serially diluted 1:3 in DMSO to generate a 10-point dilution series and plated using an acoustic liquid handler system (Echo 550 Series Liquid Handler, Labcyte). A 5× intermediate compound dilution plate in MEM with 1×NEAA and 1 mM sodium pyruvate (150 μM starting compound concentration in 1.5% DMSO) was then prepared. Five μl of the intermediate serially diluted compounds were added to the cell plate to final concentrations ranging from […] in 0.3% DMSO. 0.3% DMSO alone was used to establish the maximum (MAX) signal and GDC-0032 at a final concentration of 1 μM was used as a reference compound for the minimum (MIN) signal. After 3 hours treatment, the medium was removed, and the cells lysed in 10 μL of 1× SureFire Lysis buffer with shaking for 10 minutes at room temperature. The Acceptor Mix (Reaction Buffer 1+Reaction Buffer 2+Activation Buffer+SureFire Ultra Acceptor Beads) was prepared by diluting Activation buffer 25-fold in combined Reaction Buffer 1 and Reaction Buffer 2. The Acceptor beads were diluted 50-fold in the combined Reaction Buffers. Five μL of Acceptor Mix was added to each well, the plate was sealed and covered with foil and incubated for 1 hour at room temperature. The Donor Mix (dilution buffer+SureFire Ultra Donor Beads) was prepared by diluting Donor Beads 50-fold in dilution buffer. Five μL of the Donor Mix was added to each well and the plate sealed and covered with foil and incubated for 1 hour at room temperature in the dark. The plates were read on a Neo2 plate reader instrument from Biotek using standard AlphaLisa settings. Compounds were tested in duplicate and the average % inhibition at each compound concentration was used to generate a single dose response curve. The data were processed using the Genedata-Screener tool. Relative IC50 values were determined using luminescence units by calculating percent inhibition with respect to the in-plate “MIN” (GDC-0032 reference control) and “MAX” (DMSO) controls. The data was analyzed using a 4-parameter nonlinear logistic equation (four-parameter logistic concentration-response curve): Y=bottom+[(top−bottom)/1+(X/IC50)slope] where Y=% inhibition, X=concentration of inhibitor, bottom=minimum value of y attained by curve-fit, top=maximum value of y attained by curve-fit and slope=steepness of curve at the IC50. % Inhibition=[(signal at X−median Min)/(median Max−median Min)]×100 IC50: concentration of compound that reduces a given response (ligand binding, enzyme response) by 50%. Relative IC50: concentration giving half the compound's maximum response.
For IC50 values shown in Table B, “A” means IC50<50 nM; “B” means IC50 ranging between 50 nM and 100 nM; “C” means IC50 ranging between 100 nM and 500 nM; “D” means IC50>500 nM.

Assay [2] deals with T1, human full length PIK3KA H1047R mutant (p110α/p85α complex) (Homo sapiens, UniProt P42336, H1047R).
T1 construct: Recombinant, catalytically active human full length PIK3KA Wild-type and H1047R mutant were purchased as 1:1 complex; 6xHis (N); purchased EMD Millipore Sigma 14-792M
T1 sequence (P42336 whole entry H1047R): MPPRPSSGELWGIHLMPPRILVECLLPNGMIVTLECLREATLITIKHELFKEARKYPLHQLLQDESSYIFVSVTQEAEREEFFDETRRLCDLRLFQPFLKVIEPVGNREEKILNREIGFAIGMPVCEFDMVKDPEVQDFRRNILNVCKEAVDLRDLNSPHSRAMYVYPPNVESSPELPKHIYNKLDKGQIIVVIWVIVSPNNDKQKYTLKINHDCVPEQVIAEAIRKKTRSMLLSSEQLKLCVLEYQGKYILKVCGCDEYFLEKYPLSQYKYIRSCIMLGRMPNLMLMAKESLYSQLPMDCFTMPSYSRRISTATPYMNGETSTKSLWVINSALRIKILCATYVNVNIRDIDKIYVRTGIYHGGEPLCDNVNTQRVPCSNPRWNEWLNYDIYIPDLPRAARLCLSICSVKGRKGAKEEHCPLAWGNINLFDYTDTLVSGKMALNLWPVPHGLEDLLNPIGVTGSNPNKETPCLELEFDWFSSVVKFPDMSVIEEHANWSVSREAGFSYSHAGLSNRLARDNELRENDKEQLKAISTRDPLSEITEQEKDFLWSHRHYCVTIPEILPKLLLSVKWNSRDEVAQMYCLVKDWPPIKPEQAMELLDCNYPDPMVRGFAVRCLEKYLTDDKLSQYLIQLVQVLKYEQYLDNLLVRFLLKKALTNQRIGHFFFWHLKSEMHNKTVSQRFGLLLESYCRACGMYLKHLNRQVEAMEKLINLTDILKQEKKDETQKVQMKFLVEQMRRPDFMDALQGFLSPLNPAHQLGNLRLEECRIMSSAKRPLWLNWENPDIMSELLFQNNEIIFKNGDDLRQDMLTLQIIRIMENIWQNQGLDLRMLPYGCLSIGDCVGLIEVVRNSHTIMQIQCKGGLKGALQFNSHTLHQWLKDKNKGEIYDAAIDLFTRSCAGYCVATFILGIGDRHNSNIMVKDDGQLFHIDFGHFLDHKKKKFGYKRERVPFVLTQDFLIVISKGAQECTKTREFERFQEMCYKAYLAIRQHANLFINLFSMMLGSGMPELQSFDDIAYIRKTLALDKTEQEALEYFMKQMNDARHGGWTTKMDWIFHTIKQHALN
T1 sequence (P27986 whole entry partner): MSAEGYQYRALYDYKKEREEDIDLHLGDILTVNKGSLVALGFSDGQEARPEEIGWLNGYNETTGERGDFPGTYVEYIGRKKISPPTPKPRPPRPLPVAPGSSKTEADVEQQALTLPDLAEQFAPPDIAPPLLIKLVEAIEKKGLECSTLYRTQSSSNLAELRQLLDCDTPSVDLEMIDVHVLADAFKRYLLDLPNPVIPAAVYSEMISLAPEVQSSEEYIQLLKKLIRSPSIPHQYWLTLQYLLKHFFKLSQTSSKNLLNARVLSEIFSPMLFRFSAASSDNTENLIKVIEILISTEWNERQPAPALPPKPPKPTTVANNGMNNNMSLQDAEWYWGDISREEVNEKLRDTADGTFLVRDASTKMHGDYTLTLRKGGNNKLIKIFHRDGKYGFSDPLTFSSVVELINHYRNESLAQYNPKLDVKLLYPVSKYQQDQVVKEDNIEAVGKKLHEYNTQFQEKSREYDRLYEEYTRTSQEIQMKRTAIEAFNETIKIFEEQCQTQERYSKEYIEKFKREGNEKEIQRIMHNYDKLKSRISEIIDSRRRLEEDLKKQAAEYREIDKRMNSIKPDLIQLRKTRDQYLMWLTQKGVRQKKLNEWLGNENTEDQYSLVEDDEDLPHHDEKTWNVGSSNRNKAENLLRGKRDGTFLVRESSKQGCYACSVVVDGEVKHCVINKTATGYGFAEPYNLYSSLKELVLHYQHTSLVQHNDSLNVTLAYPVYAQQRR
As to the kind of experiment: PI3K-alpha kinase (PIK3CA) biochemical activity, H1047R mutant, ADP-Glo. The settings on record: PI3K-α (PIK3CA) biochemical, H1047R mutant, Soy PI lipid substrate. In outline: (§1)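 ADP formation, read by ADP-Glo, is run to about 10% ATP turnover at 27 °C with 20 μM ATP and 50 μM PIP2diC8 or soy PI. WT or H1047R p110α/p85α (1–5 nM) is pre-incubated 1 h with compound in HEPES pH 7.4/MgCl2/Triton buffer, 1% DMSO. 10-point 1:3 series, logistic IC50 versus no-enzyme and DMSO controls.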

In assay [3] the target is T2, human full length PIK3KA Wild-type (p110α/p85α complex) (Homo sapiens, UniProt P42336).
T2 construct: Recombinant, catalytically active human full length PIK3KA Wild-type and H1047R mutant were purchased as 1:1 complex; 6xHis (N); purchased EMD Millipore Sigma 14-602M
As to the kind of experiment: PI3K-alpha kinase (PIK3CA) biochemical activity, wild-type, ADP-Glo. Particulars: PI3K-α (PIK3CA) biochemical, Soy PI lipid substrate. In outline:
as §1

With `Cc1cc(C(C)Nc2ccccc2C(=O)O)c2oc(-c3ccc(N4CCCC4)cc3)cc(=O)c2c1` (single isomer, unassigned; isomer 2) [Example 55, 2-[1-[6-Methyl-4-oxo-2-(4-pyrrolidin-1-ylphenyl)chromen-8-yl]ethylamino]benzoic acid, Isomer 2], the IC50 in assay [1] (Homo sapiens, MDA-MB-453, 3 h) is 100 to 500 nM; in assay [2], < 500 nM; in assay [3], 1000 to 5000 nM.
On the same counts, the results for `Cc1cc(C(C)Nc2ccccc2C(=O)O)c2oc(-c3ccccc3)c(C#N)c(=O)c2c1` (single isomer, unassigned; isomer 2) [Example 62, 2-[1-(3-Cyano-6-methyl-4-oxo-2-phenyl-chromen-8-yl)ethylamino]benzoic acid, Isomer 2] are < 50 nM, < 500 nM and < 500 nM.
On to `Cc1cc(C(C)Nc2cccc(F)c2C(=O)O)c2oc(-c3ccccc3F)c(C)c(=O)c2c1` (single isomer, unassigned; isomer 2) [Example 104, 2-Fluoro-6-[1-[2-(2-fluorophenyl)-3,6-dimethyl-4-oxo-chromen-8-yl]ethylamino]benzoic acid, Isomer 2], for which the half-maximal inhibitory concentration (IC50) in assay [1] (Homo sapiens, MDA-MB-453, 3 h) was 100 to 500 nM; in assay [2], 500 to 1000 nM; in assay [3], > 10000 nM.
As to `Cc1cc(C(C)Nc2cccc(F)c2C(=O)O)c2oc(-c3cccc(F)c3)c(C)c(=O)c2c1` (single isomer, unassigned; isomer 2) [Example 106, 2-Fluoro-6-[1-[2-(3-fluorophenyl)-3,6-dimethyl-4-oxo-chromen-8-yl]ethylamino]benzoic acid, Isomer 2], the IC50 in assay [1] is > 500 nM; in assay [2] it was 1000 to 5000 nM; in assay [3] it was 1000 to 5000 nM.
Consider `Cc1cc(C(C)Nc2cccc(F)c2C(=O)O)c2oc(-c3ccccc3F)cc(=O)c2c1` (single isomer, unassigned; isomer 2) [Example 108, 2-Fluoro-6-[1-[2-(2-fluorophenyl)-6-methyl-4-oxo-chromen-8-yl]ethylamino]benzoic acid, Isomer 2], for which the IC50 is > 500 nM in assay [1] (Homo sapiens, MDA-MB-453, 3 h); 5000 to 10000 nM in assay [2]; > 10000 nM in assay [3].
Turning to `COc1ccc(NC(C)c2cc(C)cc3c(=O)c(C)c(-c4ccccc4)oc23)c(C(=O)O)n1` (single isomer, unassigned; isomer 2) [Example 110, 3-[1-(3,6-Dimethyl-4-oxo-2-phenyl-chromen-8-yl)ethylamino]-6-methoxy-pyridine-2-carboxylic acid, Isomer 2], the results for the IC50 in assay [1], in assay [2] and in assay [3] were > 500 nM, 1000 to 5000 nM and 1000 to 5000 nM, respectively.
In the case of `Cc1cc(C(C)Nc2ccccc2C(=O)O)c2oc(-c3ccccc3)c(F)c(=O)c2c1` (single isomer, unassigned; isomer 2) [Example 133, 2-[1-(3-Fluoro-6-methyl-4-oxo-2-phenyl-chromen-8-yl)ethylamino]benzoic acid, Isomer 2], the results for the IC50 in assay [1], in assay [2] and in assay [3] were 50 to 100 nM, < 500 nM and 1000 to 5000 nM, respectively.
As to `Cc1cc([C@@H](C)Nc2ccc(C#N)cc2C(=O)O)c2oc(-c3ccccc3)c(C)c(=O)c2c1` (single isomer, unassigned; isomer 2) [Example 158], the results for the IC50 in assay [1], in assay [2] and in assay [3] were < 50 nM, < 500 nM and 1000 to 5000 nM, respectively.
`Cc1cc([C@@H](C)Nc2ccc(C#N)nc2C(=O)O)c2oc(-c3ccccc3)c(C)c(=O)c2c1` (single isomer, unassigned; isomer 2) [Example 160]: the IC50 in assay [1] is 100 to 500 nM; in assay [2], < 500 nM; in assay [3], 1000 to 5000 nM.
Regarding `Cc1cc([C@@H](C)Nc2ccc(Cl)nc2C(=O)O)c2oc(-c3ccccc3)c(C)c(=O)c2c1` [Example 1, 6-Chloro-3-[[(1R)-1-(3,6-dimethyl-4-oxo-2-phenyl-chromen-8-yl)ethyl]amino]pyridine-2-carboxylic acid], the IC50 was < 50 nM in assay [1] (Homo sapiens, MDA-MB-453, 3 h); < 500 nM in assay [2]; 500 to 1000 nM in assay [3].
Regarding `Cc1cc([C@@H](C)Nc2ccccc2C(=O)O)c2oc(-c3ccccc3C)cc(=O)c2c1` [Example 14, 2-[[(1R)-1-[6-Methyl-2-(o-tolyl)-4-oxo-chromen-8-yl]ethyl]amino]benzoic acid], the IC50 in assay [1] (Homo sapiens, MDA-MB-453, 3 h) is < 50 nM; in assay [2], < 500 nM; in assay [3], > 10000 nM.
Turning to `Cc1cc([C@@H](C)Nc2ccccc2C(=O)O)c2oc(-c3ccccc3C#N)cc(=O)c2c1` [Example 15, 2-[[(1R)-1-[2-(2-Cyanophenyl)-6-methyl-4-oxo-chromen-8-yl]ethyl]amino]benzoic acid], the IC50 was < 50 nM in assay [1] (Homo sapiens, MDA-MB-453, 3 h); < 500 nM in assay [2]; 5000 to 10000 nM in assay [3].
Turning to `Cc1cc([C@@H](C)Nc2ccccc2C(=O)O)c2oc(-c3ccccc3)c(C)c(=O)c2c1` [Example 21, 2-[[(1R)-1-(3,6-Dimethyl-4-oxo-2-phenyl-chromen-8-yl)ethyl]amino]benzoic acid], the IC50 is < 50 nM in assay [1] (Homo sapiens, MDA-MB-453, 3 h); < 500 nM in assay [2]; 1000 to 5000 nM in assay [3].
As for `Cc1cc([C@@H](C)Nc2ccccc2C(=O)O)c2oc(-c3ccc(C(C)(C)C#N)cc3)cc(=O)c2c1` [Example 25], the IC50 in assay [1] (Homo sapiens, MDA-MB-453, 3 h) was 50 to 100 nM; in assay [2], < 500 nM; in assay [3] it was 1000 to 5000 nM.
For `Cc1cc([C@@H](C)Nc2ccc(C(F)(F)F)nc2C(=O)O)c2oc(-c3ccccc3)c(C)c(=O)c2c1` [Example 26, 3-[[(1R)-1-(3,6-Dimethyl-4-oxo-2-phenyl-chromen-8-yl)ethyl]amino]-6-(trifluoromethyl)-pyridine-2-carboxylic acid], the IC50 in assay [1] (Homo sapiens, MDA-MB-453, 3 h) was 50 to 100 nM; in assay [2], < 500 nM; in assay [3], 500 to 1000 nM.
Turning to `Cc1cc([C@@H](C)Nc2ccccc2C(=O)O)c2oc(-c3cccc(F)c3)c(C)c(=O)c2c1` [Example 28, 2-[[(1R)-1-[2-(3-Fluorophenyl)-3,6-dimethyl-4-oxo-chromen-8-yl]ethyl]amino]benzoic acid], the IC50 in assay [1] (Homo sapiens, MDA-MB-453, 3 h) was < 50 nM; in assay [2], < 500 nM; in assay [3], 1000 to 5000 nM.
Regarding `Cc1cc([C@@H](C)Nc2ccccc2C(=O)O)c2oc(-c3ccc(F)cc3)c(C)c(=O)c2c1` [Example 29, 2-[[(1R)-1-[2-(4-Fluorophenyl)-3,6-dimethyl-4-oxo-chromen-8-yl]ethyl]amino]benzoic acid], the IC50 was < 50 nM in assay [1] (Homo sapiens, MDA-MB-453, 3 h); < 500 nM in assay [2]; 500 to 1000 nM in assay [3].
Consider `Cc1cc([C@@H](C)Nc2ccccc2C(=O)O)c2oc(-c3cccc(C#N)c3)c(C)c(=O)c2c1` [Example 30, 2-[[(1R)-1-[2-(3-Cyanophenyl)-3,6-dimethyl-4-oxo-chromen-8-yl]ethyl]amino]benzoic acid], for which the IC50 in assay [1] (Homo sapiens, MDA-MB-453, 3 h) was < 50 nM; in assay [2], < 500 nM; in assay [3], 500 to 1000 nM.
